According to patent US20260285847A1, “SYMMETRIC AMINOINDOLE-LINKED TRIAZINE FOR A DUAL EFFECT ON ALPHA-SYNUCLEIN AND TAU ISOFORM 2N4R FIBRILLIZATION” (Purdue Research Foundation, priority 2023, published 2026):
“Also recorded” adds a separate entry of the source.

Columns and labels:
[1] = system: paired helical filaments isolated from AD brains; assay: Ex vivo disaggregation of paired helical filaments (TEM); parameters: species or system human; details: compound 50 μM, 120 hours at 37° C., vs 1.5% DMSO
Description: (§1) Amyloid-β plaques were purified from postmortem human AD brains obtained from patients diagnosed with advanced Alzheimer's (Braak stage V or VI) (Tissue Biobank at Case Western Reserve University-Cleveland Clinic) using ultracentrifugation with a sucrose gradient and cell sorting, as previously published.^38-39 Purified amyloid-β plaques were examined with polarized and fluorescence microscopy (Congo Red and Thioflavin-S staining) and scanning electron microscopy. Each aliquot of amyloid-β plaques was solubilized with 60 μL of 10 mM PBS buffer (pH 7.4). One extraction consisted of 0.28 mg/ml of protein, as measured with nanodrop (A260/280 nm). A volume of 20 μL of extraction was incubated with 1.5% DMSO (control) or compound 10 (50 μM) for 120 hours at 37° C. prior to visualization by transmission electron microscopy.
(§2) The protein quantification of the plaques isolated from AD brains were measured with nanodrop. […] Compound 10 was tested at 50 μM based on the protein levels and results obtained with PICUP experiments (FIG. 7). AP-plaque samples were incubated with 1.5% DMSO (control) or compound 10 (50 μM) in 10 mM PBS buffer (pH 7.4) for 120 hours at 37° C. prior to visualization by transmission electron microscopy. During the visualization of the grids, several paired helical filaments were observed.

α-syn [2] = target: T1, α-syn (Homo sapiens, UniProt P37840); assay: Transmission electron microscopy (TEM) of α-syn fibrils; format: biochemical; details: protein 60 μM, compound 600 μM (1:10), 24 hours at 37° C.
T1 construct: purchased rPeptide
Protocol: (§3) To confirm the general anti-fibrillar effect of compound 10, transmission electron microscopy (TEM) was used as an orthogonal assay. After incubating recombinant proteins (at 60 μM) with 600 μM compound 10 for 24 hours at 37° C., TEM was utilized to detect fibril formation.^32 A volume of 10 μL was applied on a 400-mesh Formvar-carbon-coated copper grid (Electron Microscopy Sciences, Hatfield, PA). The grids were incubated for 1 minute and washed three times with distilled water. They were carefully air-dried and incubated for 1 minute in a fresh solution of 1% uranyl acetate. Samples were air-dried and observed using a transmission microscope. Visualization of the grids was performed with transmission electron microscopy (JEOL 1400 Flash, Japan). Acquisition of pictures was performed with the following settings: accelerating voltage of 100 kV and magnification of 40k.

[3] = Half-life and brain penetration in mice; format: in vivo; details: CD1 mice, 1 mg/kg
Description: The concentration ration plasma:brain is near to one which is adequate.

[4] = system: Aβ-plaques isolated from AD brains; assay: Ex vivo disaggregation of Aβ-plaques (TEM); parameters: species or system human; details: compound 50 μM, 120 hours at 37° C., vs 1.5% DMSO
Description: as §1, §2

p-tau isoform 1N4R = target: T2, p-tau isoform 1N4R (Homo sapiens, UniProt P10636); format: biochemical; details: protein 60 μM, compound 600 μM (1:10), 24 hours at 37° C.
T2 construct: made in house
Protocol: as §3

α-syn [5] = target: T1, α-syn; assay: PICUP cross-linking assay of α-syn oligomer formation; format: biochemical
Protocol: PICUP is a technique in which oligomer formation is induced by cross-linking. To induce oligomerization by cross-linking, α-syn (from Rpeptide, LLC) and tau isoform 2N4R were diluted in 10 mM phosphate buffer (pH 7.4) to reach a final concentration of 10 μM. Different compounds were added to the protein solution at a final concentration of 50 μM, resulting in a molar ratio of 1:5. To confirm the gradual effect of compounds on the inhibition of α-syn oligomerization, compounds were tested at final concentration of 3.125, 6.25, 12.5, 25, and 50 μM. The controls consisted of samples without light exposition, without Ru(bpy) or ammonium persulfate, and without compound (i.e., 0.125% DMSO). The cross-linking reaction was initiated by the addition of 2 μL of Ru(bpy) (300 μM final concentration) and 2 μL ammonium persulfate (6 mM final concentration).^32 Samples were irradiated immediately. Light exposure was of a 1 second duration for α-syn and a 3 second duration for tau isoform 2N4R, with a 53 W (120 V) incandescent lamp installed in a homemade dark-box. Each tube contained a final volume of 20 μL. After irradiation, 8.3 μL of Laemmli loading buffer containing 15% 0-mercaptoethanol was immediately added to the solution, followed by incubation at 95° C. for 10 min. The cross-linked samples were separated on a 16% SDS-PAGE gel and visualized by Coomassie blue staining.

tau isoform 2N4R [6] = target: T3, tau isoform 2N4R (Homo sapiens, UniProt P10636); assay: ThT fluorescence assay of tau isoform 2N4R fibril formation; format: biochemical; details: compound 100 μM, tau 2N4R 6 μM
T3 construct: made in house; host or cells: E. coli BL21(DE3)
Protocol: (§4) Chemical and peptide source. DMSO and thioflavin-T (ThT) were purchased from Alfa Aesar (Ward Hill, MA). Procuration of recombinant α-syn was from rPeptide (WatKinsville, GA). The recombinant p-tau isoform 1N4R was prepared as published previously.^31, 36 Concerning the preparation of tau 2N4R, bacterial expression plasmid consisting of the vector pRK172 carrying a cDNA encoding the human Tau 2N4R isoform was a kind gift of Dr. David Eliezer (Weill Cornell Medicine). For protein expression, E. coli BL21(DE3) cells were transformed with the plasmid and grown in LB media supplemented with ampicillin (100 μg/mL). Protein over-expression was induced by the addition of 1 mM IPTG for 4 h at 37° C., and cells were pelleted by centrifugation at 6,000 g for 15 min at 4° C. The cells were resuspended in lysis buffer (20 mM MES, 400 mM NaCl, 0.2 mM MgCl2, 1 mM EGTA, protease inhibitor cocktail (P8340, Sigma Aldrich), 0.25 mg/mL lysozyme, and 1 μg/mL DNase I, pH 6.8) and lysed by a French press cell disruptor at 4° C., and the lysate was boiled for 20 min. Denatured proteins were pelleted by centrifugation at 30,000 g for 30 min at 4° C., and the supernatant was dialyzed overnight against cation exchange buffer (20 mM MES, 50 mM NaCl, 1 mM MgCl2, 1 mM EGTA, 2 mM DTT, 0.1 mM PMSF, pH 6.8). The dialysate was loaded onto a HiPrep SP HP column, and proteins were eluted with a linear gradient ranging from 50 mM to 1 M NaCl. Fractions containing tau isoform 2N4R were pooled, and the resulting protein solution was dialyzed against PBS (pH 7.4) and stored at −80° C.

tau isoform 2N4R [7] = target: T3, tau isoform 2N4R; assay: TEM of tau isoform 2N4R fibrils; format: biochemical; details: protein 60 μM, compound 600 μM (1:10), 24 hours at 37° C.
Protocol: as §4
To confirm the general anti-fibrillar effect of compound 10, transmission electron microscopy (TEM) was used as an orthogonal assay. After incubating recombinant proteins (at 60 μM) with 600 μM compound 10 for 24 hours at 37° C., TEM was utilized to detect fibril formation.^32 A volume of 10 μL was applied on a 400-mesh Formvar-carbon-coated copper grid (Electron Microscopy Sciences, Hatfield, PA). The grids were incubated for 1 minute and washed three times with distilled water. […]

T3 sequence (P10636 1-441 isoform P10636-8): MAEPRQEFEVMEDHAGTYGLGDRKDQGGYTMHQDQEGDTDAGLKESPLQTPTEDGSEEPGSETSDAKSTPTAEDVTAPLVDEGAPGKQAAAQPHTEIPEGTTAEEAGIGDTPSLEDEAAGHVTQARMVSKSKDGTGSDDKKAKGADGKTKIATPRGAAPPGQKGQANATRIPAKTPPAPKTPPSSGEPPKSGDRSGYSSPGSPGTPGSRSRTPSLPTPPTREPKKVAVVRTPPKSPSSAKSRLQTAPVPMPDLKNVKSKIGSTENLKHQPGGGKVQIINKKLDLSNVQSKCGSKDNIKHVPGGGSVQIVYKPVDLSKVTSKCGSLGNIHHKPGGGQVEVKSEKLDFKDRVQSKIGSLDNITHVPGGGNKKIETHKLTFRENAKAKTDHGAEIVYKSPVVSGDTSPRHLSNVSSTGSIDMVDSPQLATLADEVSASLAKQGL
T2 sequence (P10636 1-412 isoform P10636-7): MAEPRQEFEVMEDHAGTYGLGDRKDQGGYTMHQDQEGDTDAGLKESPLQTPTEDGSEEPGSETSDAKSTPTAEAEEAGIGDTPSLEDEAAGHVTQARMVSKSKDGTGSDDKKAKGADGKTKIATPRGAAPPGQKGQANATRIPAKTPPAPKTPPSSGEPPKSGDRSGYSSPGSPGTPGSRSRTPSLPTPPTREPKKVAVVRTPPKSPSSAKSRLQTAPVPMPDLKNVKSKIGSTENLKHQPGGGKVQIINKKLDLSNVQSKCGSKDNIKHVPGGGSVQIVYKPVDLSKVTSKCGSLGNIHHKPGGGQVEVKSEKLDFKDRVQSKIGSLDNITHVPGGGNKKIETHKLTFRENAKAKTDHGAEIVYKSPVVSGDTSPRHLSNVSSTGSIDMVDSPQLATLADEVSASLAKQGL

## c1cc(Nc2ncnc(Nc3cccc4[nH]ccc34)n2)c2cc[nH]c2c1 [Compound 10, N2,N4-bis(1H-indol-4-yl)-1,3,5-triazine-2,4-diamine]
[1]
  disaggregation of paired helical filaments (TEM, in words): shorter paired helical filaments; also recorded: disaggregated human Aβ plaques and NFTs
α-syn [2]
  α-syn fibril ultrastructure (TEM): a range of shorter fibrils to amorphous protein; also recorded: rare short fibrils
[3]
  concentration ratio plasma:brain: near to one
  crossing of the blood brain barrier: crossed the blood brain barrier
  half-life: short half-life
[4]
  disaggregation of Aβ-plaques (TEM, in words): smaller AP-plaques; also recorded: disaggregated human Aβ plaques and NFTs
p-tau isoform 1N4R
  p-tau isoform 1N4R fibril ultrastructure (TEM): less fibrils resulted from this treatment
α-syn [5]; compound 50 μM, high molecular weight oligomers around 50 kDa
  α-syn oligomer formation (PICUP, in words): inhibited both α-syn and tau oligomer formation
α-syn [5]; compound 3.125 to 50 μM
  α-syn oligomerization at different concentrations (PICUP): effective in reducing oligomerization of α-syn and tau isoform 2N4R in a dose-dependent manner
Tau isoform 2N4R [6]
  elongation rate of tau isoform 2N4R fibrillization: slower elongation rate
Tau isoform 2N4R [6]; heparin 1.5 μM
  tau isoform 2N4R fibrillization (in words): markedly inhibited tau isoform 2N4R fibrillization
Tau isoform 2N4R [7]
  tau isoform 2N4R fibril ultrastructure (TEM): needle-shaped short fibrils; also recorded: very short needle shaped fibrils admixed with debris
